The results in this text go back to ChEMBL document CHEMBL1201862, “PubChem BioAssay data set” (2004).

Test systems include MDA-MB-435; COLO 205; SN12C; NCI-H226; A498; NCI/ADR-RES; HCT-15; MCF7; SK-MEL-2; EKVX; LOX IMVI; SW-620; MDA-MB-231; NCI-H23; OVCAR-4; PC-3; DU-145; SR; NCI-H522.
Holding throughout (test): growth of human tumour cells (NCI), 48 h

The structures appear in SMILES notation.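 Compound exposure: 48 hours, 5 concentrations, 96-well plates. At the GI50, growth is halved.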 Calls of active or inactive are those of the source. Cut-off read from the data, not from the text of the source: active = GI50 up to about 1.1 µM and inactive = higher. Where a SMILES comes first, the peptide text is derived from it. The star is where a group is joined. Cbz = O=C(OCc1ccccc1)*

In the case of `CNc1ncnc2c1cnn2Cc1cn(COCC(O)CO)nn1` (centres undefined), the GI50 in the assay on MDA-MB-435, in the assay on COLO 205, in the assay with SN12C, in the assay on NCI-H226, in the assay with A498 and in the assay on NCI/ADR-RES was > 100 µM (inactive) throughout. Besides, the GI50 in the assay on HCT-15 is greater than 100 µM; with MCF7, > 100 µM (inactive); in the assay on SK-MEL-2, > 100 µM (inactive); with EKVX it was > 100 µM (inactive); in the assay with LOX IMVI it was > 100 µM (inactive); with SW-620, > 100 µM (inactive). The GI50 with MDA-MB-231, in the assay with NCI-H23, with OVCAR-4, with PC-3 and in the assay with DU-145 was > 100 µM (inactive) each time.
With `Clc1nc2c(C#Cc3ccccc3)ncnc2n1C1CCCCO1` (centres undefined), the GI50 with MDA-MB-435 was 7 µM (inactive); in the assay on COLO 205, 15.4 µM (inactive); in the assay with SN12C, 10.4 µM (inactive); in the assay on NCI-H226 it was 71.3 µM (inactive); with NCI/ADR-RES, 25.8 µM (inactive); in the assay on HCT-15, 12.2 µM. Besides, the GI50 was 8.32 µM (inactive) with MCF7; 12.9 µM (inactive) with SK-MEL-2; 4.37 µM (inactive) with SR; 2.55 µM (inactive) in the assay on EKVX; 12.6 µM (inactive) with LOX IMVI; 16.3 µM (inactive) in the assay on SW-620. In addition, the GI50 in the assay on MDA-MB-231 is 16.6 µM (inactive); in the assay on NCI-H23, 12.9 µM (inactive); with NCI-H522, 7.94 µM (inactive); in the assay with OVCAR-4, 9.51 µM (inactive); in the assay with PC-3, 12.2 µM (inactive); in the assay on DU-145, 19 µM (inactive).
In the case of `CC(C)(C)OC(=O)NC(C)(C)C(=O)NCCC(=O)O`, the GI50 in the assay with MDA-MB-435, in the assay with COLO 205, in the assay on SN12C, in the assay on NCI-H226, in the assay with A498 and in the assay with NCI/ADR-RES was > 100 µM (inactive) each time. Besides, the GI50 with HCT-15 was greater than 100 µM; in the assay on MCF7, > 100 µM (inactive); with SK-MEL-2, > 100 µM (inactive); in the assay on EKVX it was > 100 µM (inactive); in the assay with LOX IMVI, > 100 µM (inactive); in the assay with SW-620, > 100 µM (inactive). Also, the GI50 in the assay on MDA-MB-231, in the assay on NCI-H23, with NCI-H522, in the assay on OVCAR-4 and in the assay on PC-3 was > 100 µM (inactive) in each case.
Take `O=[N+]([O-])C(=C1c2ccccc2-c2ccccc21)[N+](=O)[O-]`: the GI50 is > 100 µM (inactive) with COLO 205; > 100 µM (inactive) with SN12C; 69.2 µM (inactive) in the assay on NCI-H226; 57.3 µM (inactive) with A498; greater than 10 µM in the assay on HCT-15; > 100 µM (inactive) with SK-MEL-2. The GI50 in the assay on SR was > 100 µM (inactive); with EKVX, > 100 µM (inactive); in the assay with LOX IMVI it was 83.4 µM (inactive); in the assay with SW-620, 64.7 µM (inactive); with NCI-H23, > 10 µM (inactive); in the assay on NCI-H522, 44.1 µM (inactive). Also, the GI50 with OVCAR-4 is > 100 µM (inactive).
`Cc1ccccc1/N=N/c1ccc(/N=N/c2c(O)ccc3cc(S(=O)(=O)O)cc(S(=O)(=O)O)c23)c(C)c1`: the GI50 was > 100 µM (inactive) in the assay on MDA-MB-435; > 100 µM (inactive) with COLO 205; > 100 µM (inactive) with NCI-H226; > 100 µM (inactive) in the assay with NCI/ADR-RES; greater than 100 µM in the assay on HCT-15; > 100 µM (inactive) in the assay on MCF7. Besides, the GI50 in the assay with SK-MEL-2, with SR, in the assay with EKVX, in the assay on SW-620, with MDA-MB-231 and in the assay with NCI-H23 was > 100 µM (inactive) each time. For the same compound, the GI50 with NCI-H522, in the assay with OVCAR-4 and in the assay with PC-3 was > 100 µM (inactive) in each case.
Consider `CC(C)(C)OC(=O)C1=C(N)N(Cc2ccccc2)C2(C)C=CC(=O)C=C12` (centres undefined), for which the GI50 was 4.02 µM (inactive) with MDA-MB-435; 2.3 µM (inactive) with COLO 205; 8.47 µM (inactive) in the assay on SN12C; 12.9 µM (inactive) in the assay on NCI-H226; 10.2 µM (inactive) with A498; 23.9 µM (inactive) with NCI/ADR-RES. Besides, the GI50 in the assay with HCT-15 was 3.21 µM; in the assay with MCF7 it was 2.5 µM (inactive); in the assay with SK-MEL-2, 11.7 µM (inactive); with EKVX it was 5.73 µM (inactive); with LOX IMVI, 2.34 µM (inactive); with SW-620, 2.37 µM (inactive). The GI50 with MDA-MB-231 was 6.98 µM (inactive); with NCI-H23 it was 9.29 µM (inactive); with NCI-H522 it was 1.67 µM (inactive); in the assay on OVCAR-4, 3.36 µM (inactive); in the assay on PC-3, 7.21 µM (inactive); in the assay on DU-145, 4.04 µM (inactive).
`O=C1c2ccccc2-c2nnc3c(c21)-c1ccccc1C3`: the GI50 with MDA-MB-435 was > 100 µM (inactive); in the assay on COLO 205, 46.6 µM (inactive); in the assay on SN12C it was > 100 µM (inactive); in the assay on NCI-H226 it was 43.5 µM (inactive); in the assay with NCI/ADR-RES, > 100 µM (inactive); with HCT-15 it was 39.4 µM. Also, the GI50 in the assay on MCF7 is 64.6 µM (inactive); in the assay with SK-MEL-2, > 100 µM (inactive); in the assay on SR, 12 µM (inactive); in the assay with EKVX it was 18.5 µM (inactive); in the assay on SW-620, 53.2 µM (inactive); with MDA-MB-231 it was > 100 µM (inactive). For the same compound, the GI50 in the assay on NCI-H23 is > 100 µM (inactive); in the assay with NCI-H522, 48.6 µM (inactive); in the assay on PC-3, > 100 µM (inactive); in the assay on DU-145, > 100 µM (inactive).
Take `CCOC(=O)Cc1csc(Nc2ccccc2[N+](=O)[O-])n1`: the GI50 in the assay on COLO 205 was > 100 µM (inactive); with SN12C it was > 100 µM (inactive); in the assay with NCI-H226 it was > 100 µM (inactive); in the assay with A498, > 100 µM (inactive); in the assay on HCT-15 it was greater than 56.6 µM; in the assay on SK-MEL-2, > 100 µM (inactive). Also, the GI50 in the assay on SR is 29.7 µM (inactive); with EKVX it was > 100 µM (inactive); in the assay on LOX IMVI it was > 46.7 µM (inactive); in the assay with SW-620, > 57.5 µM (inactive); with NCI-H23, > 100 µM (inactive); in the assay with NCI-H522, > 100 µM (inactive). Also, the GI50 in the assay with OVCAR-4 was > 100 µM (inactive).
Turning to `O=[N+]([O-])/C(C(Cl)=C(Cl)Cl)=C(\Nc1ccccc1)n1nnc2ccccc21`, the GI50 in the assay with MDA-MB-435 was 26.8 µM (inactive); in the assay on COLO 205 it was 27 µM (inactive); in the assay on SN12C, > 100 µM (inactive); in the assay on NCI-H226, > 100 µM (inactive); in the assay with A498 it was > 100 µM (inactive); in the assay on NCI/ADR-RES, 41.6 µM (inactive). Moreover, the GI50 was greater than 100 µM in the assay on HCT-15; 55.8 µM (inactive) with MCF7; 27.2 µM (inactive) with SK-MEL-2; > 100 µM (inactive) in the assay on EKVX; 17.4 µM (inactive) in the assay on LOX IMVI; 32.2 µM (inactive) in the assay on SW-620. The GI50 was 27 µM (inactive) with MDA-MB-231, 25.9 µM (inactive) with NCI-H23, 17.6 µM (inactive) in the assay with OVCAR-4 and 40.6 µM (inactive) in the assay on PC-3.
Take `NC1=CC(C(=O)c2ccncc2)c2nc3ccccc3nc21` (centres undefined): the GI50 in the assay with MDA-MB-435, with COLO 205, with SN12C, with NCI-H226, with A498 and with NCI/ADR-RES was > 100 µM (inactive) in each case. Besides, the GI50 in the assay on HCT-15 is 92.7 µM; in the assay on MCF7, > 100 µM (inactive); in the assay on SK-MEL-2, > 100 µM (inactive); in the assay with EKVX, > 100 µM (inactive); in the assay with LOX IMVI, 22.7 µM (inactive); in the assay with SW-620, > 100 µM (inactive). Also, the GI50 in the assay with MDA-MB-231 is > 100 µM (inactive); with NCI-H23, 63 µM (inactive); with NCI-H522 it was > 100 µM (inactive); with OVCAR-4, > 100 µM (inactive); in the assay on PC-3, > 100 µM (inactive); in the assay with DU-145, > 100 µM (inactive).
`CN(CCCN1C(=O)c2cccc3cc([N+](=O)[O-])cc(c23)C1=O)CCN(C)CCCN1C(=O)c2cccc3cc([N+](=O)[O-])cc(c23)C1=O`: the GI50 in the assay with COLO 205 was 23.4 µM (inactive); in the assay with SN12C it was > 39.3 µM (inactive); in the assay with NCI-H226 it was > 39.3 µM (inactive); with A498, > 39.3 µM (inactive); with HCT-15, 32.6 µM; in the assay on SK-MEL-2 it was 13.3 µM (inactive). Further, the GI50 in the assay on EKVX is > 39.3 µM (inactive); in the assay on SW-620, 2.48 µM (inactive); in the assay with NCI-H23 it was > 39.3 µM (inactive); in the assay on NCI-H522, > 39.3 µM (inactive); in the assay on OVCAR-4 it was 27.4 µM (inactive).
For the compound `COC(=O)C(CC(C)C)NC(=O)C(CCCNC(=N)N)NC(=O)OCc1ccccc1` (stereo not drawn) (Cbz-Arg-Leu-OMe; configuration not given here), the GI50 in the assay on MDA-MB-435 is > 100 µM (inactive); with COLO 205, > 100 µM (inactive); with SN12C, > 100 µM (inactive); in the assay with NCI-H226, > 100 µM (inactive); with NCI/ADR-RES it was > 100 µM (inactive); with HCT-15, greater than 100 µM. In addition, the GI50 in the assay with MCF7, in the assay with SR, with EKVX, with LOX IMVI, in the assay with SW-620 and in the assay with MDA-MB-231 was > 100 µM (inactive) throughout. Further, the GI50 in the assay with NCI-H23 is > 100 µM (inactive); in the assay with NCI-H522, 78.5 µM (inactive); with OVCAR-4, > 100 µM (inactive); in the assay with PC-3, > 100 µM (inactive); in the assay with DU-145 it was > 100 µM (inactive).
